Measured values reported in US20230159527A1, “COMPOUNDS AS BCL-2 INHIBITORS” (Fochon Pharmaceuticals, Ltd., priority 2020, published 2023).
Where two headings read alike, the source gives them in different places.

Tests used:
Type in all cases: cell-based
RS4;11-BCL-2 F104L cells = assay: Cell proliferation assay, engineered RS4;11 cells stably overexpressing BCL-2 F104L (MTS, 168 h); conditions: Homo sapiens, read-out: RS4, 11 BCL2-F104L
Protocol: (§1) MTS testing kit was purchased from Promega (Madison, Wis., USA). The RPMI-1640, Fetal bovine serum and Penicillin-Streptomycin were purchased from BI (Biological Industries, Beit Haemek, Israel). Puromycin was purchased from Beyotime (shanghai, China). Dimethyl sulfoxide (DMSO) was purchased from Sigma (St. Louis, Mo., USA). RS4;1l-BCL-2 G101V and RS4;11-BCL-2 F104L cells were cultured in RPM11640 supplemented with 1 ug/mL puromycin, 100 U/mL Penicillin-Streptomycin and 10% FBS.
(§2) To investigate whether a compound is able to inhibit the activity of BCL-2 mutation in cells, a mechanism-based assay using engineered cell lines stably overexpressing BCL-2 mutation ([…] and […]) was developed. In this assay, the inhibition of BCL-2 mutation was reflected by the inhibition of cell proliferation of RS4;11-BCL-2 G101V and RS4;11-BCL-2 F104L cells. Cells were plated into 96-well plates at optimized cell density (RS4;11-BCL-2 G101V: 5000 cells/well; RS4;11-BCL-2 F104L: 5000 cells/well). Plates were incubated at 37° C., with 5% CO2 for 4 h. Compounds were serially diluted to the final-concentrations of 10000, 3333.3, 1111.1, 370.4, 123.5, 41.2, 13.7, 4.6 and 1.4 nM and added to the plates. Plates were incubated at 37° C., with 5% CO2 for 168 h. 20 μl MTS was added into each well and the plates were incubated at 37° C., with 5% CO2 exactly for 2 h. The absorbance was measured by a microplate reader at 490 nm. IC50 values were calculated using GraphPad Prism 5.0 software.

Toledo cells = assay: Cell proliferation assay, Toledo cells (MTS, 72 h); conditions: Toledo cells, MTS, read-out: Toledo IC50
Method in brief: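 Toledo cells (30000/well, RPMI-1640 with 10% FBS) were preincubated for 4 h. They were then exposed to nine compound concentrations from 10000 to 1.5 nM for 72 h at 37 °C, 5% CO2. MTS was added for 2 h and absorbance read at 490 nm to give IC50.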

RS4;11-BCL-2 G101V cells = assay: Cell proliferation assay, engineered RS4;11 cells stably overexpressing BCL-2 G101V (MTS, 168 h); conditions: read-out: RS4, 11 BCL2- G101V
Protocol: as §1, §2

| IC50 (RS4;11-BCL-2 F104L cells) [nM] | IC50 (RS4;11-BCL-2 G101V cells; Homo sapiens, RS4-11, 168 h) [nM] | IC50 (RS4;11-BCL-2 G101V cells) [nM] | Compound | IC50 (Toledo cells; Homo sapiens) [nM] | IC50 (Toledo cells) [nM] |
| --- | --- | --- | --- | --- | --- |
| 1 | 1 |  | CC(C)c1ccccc1[C@@H]1CCC[C@@H]1N1CC2(CCN(c3ccc(C(=O)NS(=O)(=O)c4cnc(NC[C@H]5CC[C@](C)(O)CC5)c([N+](=O)[O-])c4)c(Oc4cnc5[nH]cc(F)c5c4)c3)CC2)C1 (single isomer, unassigned) [Example A-149, 2-((3-fluoro-1H-pyrrolo[2,3-b]pyridin-5-yl)oxy)-N-((6-((((1r,4r)-4-hydroxy-4-methylcyclohexyl)methyl)amino)-5-nitropyridin-3-yl)sulfonyl)-4-(2-((1S,2S or 1R,2R)-2-(2-isopropylphenyl)cyclo-petyl)-2,7-diazaspiro[3.5]nonan-7-yl) benzamide] | 1 |  |
| 1 | 13 |  | COC(C)COc1nc2[nH]cc(F)c2cc1Oc1cc(N2CCC3(CC2)CN([C@H]2CCC[C@H]2c2ccccc2C(C)C)C3)ccc1C(=O)NS(=O)(=O)c1cnc(NC[C@H]2CC[C@](C)(O)CC2)c([N+](=O)[O-])c1 (single isomer, unassigned) [Example A-155, 2-((3-fluoro-6-(2-methoxypropoxy)-1H-pyrrolo[2,3-b]pyridin-5-yl)oxy)-N-((6-((((1r,4r)-4-hydroxy-4-methyl-cyclohexyl)methyl)amino)-5-nitro-pyridin-3-yl)sulfonyl)-4-(2-((1S,2S or 1R,2R)-2-(2-isopropylphenyl)cyclo-pentyl)-2,7-diazaspiro[3.5]nonan-7-yl) benzamide] |  |  |
| 9 | 40 |  | COc1nc2[nH]cc(F)c2cc1Oc1cc(N2CCC3(CC2)CN([C@H]2CCC[C@H]2c2ccccc2C(C)C)C3)ccc1C(=O)NS(=O)(=O)c1cnc(NC[C@H]2CC[C@](C)(O)CC2)c([N+](=O)[O-])c1 (single isomer, unassigned) [Example A-152, 2-((3-fluoro-6-methoxy-1H-pyrrolo [2,3-b]pyridin-5-yl)oxy)-N-((6-(((1r, 4r)-4-hydroxy-4-methylcyclohexyl)methyl)amino)-5-nitropyridin-3-yl) sulfonyl)-4-(2-((1S,2S or 1R,2R)-2-(2-isopropylphenyl)cyclo-pentyl)-2,7-diazaspiro[3.5]nonan-7-yl) benzamide] | 1 |  |
| 14 | 1 |  | CC(C)c1ccccc1[C@@H]1CCCN1C1CC2(CCN(c3ccc(C(=O)NS(=O)(=O)c4cc5c(c([N+](=O)[O-])c4)N[C@@H]([C@H]4CC[C@](C)(O)CC4)CO5)c(Oc4cnc5[nH]cc(F)c5c4)c3)CC2)C1 (single isomer, unassigned) [Example D-7, 2-((3-fluoro-1H-pyrrolo[2,3-b]pyridin-5-yl)oxy)-N-(((S)-3-((1r,4S)-4-hydroxy-4-methylcyclohexyl)-5-nitro-3,4-dihydro-2H-benzo[b] [1,4]oxazin-7-yl)sulfonyl)-4-(2-((R or S)-2-(2-isopropylphenyl)pyrrolidin-1-yl)-7-azaspiro[3.5]nonan-7-yl)benzamide] | 1 |  |
| 1 | 1 |  | CC(C)c1ccccc1[C@@H]1CCCN1C1CC2(CCN(c3ccc(C(=O)NS(=O)(=O)c4cc5c(c([N+](=O)[O-])c4)N[C@@H]([C@H]4CC[C@](C)(O)CC4)CO5)c(Oc4cc5cc[nH]c5nc4O[C@@H]4C[C@@H](CO)N(C)C4)c3)CC2)C1 (single isomer, unassigned) [Example D-250, N-(((S)-3-((1r,4S)-4-hydroxy-4-methylcyclohexyl)-5-nitro-3,4-dihydro-2H-benzo[b][1,4]oxazin-7-yl)sulfonyl)-2-((6-(((3R,5S)-5-(hydroxymethyl)-1-methylpyrrolidin-3-yl)oxy)-1H-pyrrolo[2,3-b]pyridin-5-yl)oxy)-4-(2-((R or S)-2-(2-isopropylphenyl)pyrrolidin-1-yl)-7-azaspiro[3.5]nonan-7-yl)benzamide] | 1 |  |
| 1 | 10 |  | COC(C)COc1nc2[nH]cc(F)c2cc1Oc1cc(N2CCC3(CC2)CC(N2CCC[C@H]2c2ccccc2C(C)C)C3)ccc1C(=O)NS(=O)(=O)c1cc2c(c([N+](=O)[O-])c1)N[C@@H]([C@H]1CC[C@](C)(O)CC1)CO2 (single isomer, unassigned) [Example D-243, 2-((3-fluoro-6-(2-methoxypropoxy)-1H-pyrrolo[2,3-b]pyridin-5-yl)oxy)-N-(((S)-3-((1r,4S)-4-hydroxy-4-methylcyclohexyl)-5-nitro-3,4-dihydro-2H-benzo[b][1,4]oxazin-7-yl)sulfonyl)-4-(2-((R or S)-2-(2-isopropylphenyl)pyrrolidin-1-yl)-7-azaspiro[3.5]nonan-7-yl)benzamide] |  |  |
| 1 | 4 |  | COC(C)COc1nc2[nH]cc(F)c2cc1Oc1cc(N2CCC3(CC2)CN([C@H]2CCC[C@H]2c2ccccc2C(C)C)C3)ccc1C(=O)NS(=O)(=O)c1cc2c(c([N+](=O)[O-])c1)N[C@@H]([C@H]1CC[C@](C)(O)CC1)CO2 (single isomer, unassigned) [Example D-241, 2-((3-fluoro-6-(2-methoxypropoxy)-1H-pyrrolo[2,3-b]pyridin-5-yl)oxy)-N-(((S)-3-((1r,4S)-4-hydroxy-4-methylcyclohexyl)-5-nitro-3,4-dihydro-2H-benzo[b][1,4]oxazin-7-yl)sulfonyl)-4-(2-((1S,2S or 1R,2R)-2-(2-isopropylphenyl)cyclopentyl)-2,7-diazaspiro[3.5]nonan-7-yl)benzamide] |  |  |
| 4 | 14 |  | COC(C)COc1nc2[nH]cc(F)c2cc1Oc1cc(N2CCC3(CC2)CN([C@H]2CCC[C@H]2c2ccccc2C(C)C)C3)ccc1C(=O)NS(=O)(=O)c1ccc(NC[C@H]2CC[C@](C)(O)CC2)c([N+](=O)[O-])c1 (single isomer, unassigned) [Example D-233, 2-((3-fluoro-6-(2-methoxypropoxy)-1H-pyrrolo[2,3-b]pyridin-5-yl)oxy)-N-((4-(((1r,4r)-4-hydroxy-4-methylcyclohexyl)methyl)amino)-3-nitrophenyl)sulfonyl)-4-(2-((1S,2S or 1R,2R)-2-(2-isopropylphenyl)cyclopentyl)-2,7-diazaspiro[3.5]nonan-7-yl)benzamide] |  |  |
|  |  | 1 | CC(C)c1ccccc1[C@@H]1CCC[C@@H]1N1CC2(CCN(c3ccc(C(=O)NS(=O)(=O)c4cc5c(c([N+](=O)[O-])c4)N[C@@H]([C@H]4CC[C@](C)(O)CC4)CO5)c(Oc4cnc5[nH]cc(F)c5c4)c3)CC2)C1 (single isomer, unassigned) [Example D-28a, 2-((3-fluoro-1H-pyrrolo[2,3-b]pyridin-5-yl)oxy)-N-(((S)-3-((1r,4S)-4-hydroxy-4-methylcyclohexyl)-5-nitro-3,4-dihydro-2H-benzo[b] [1,4]oxazin-7-yl)sulfonyl)-4-(2-((1S,2S or 1R,2R)-2-(2-isopropylphenyl)cyclopentyl)-2,7-diazaspiro[3.5]nonan-7-yl)benzamide] |  | 1 |
|  |  | 13 | CC(C)c1ccccc1[C@@H]1CCC[C@@H]1N1CC2(CCN(c3ccc(C(=O)NS(=O)(=O)c4cc5c(c([N+](=O)[O-])c4)N[C@@H]([C@H]4CC[C@](C)(O)CC4)CO5)c(Oc4cnc5[nH]cc(F)c5c4)c3)CC2)C1 (single isomer, unassigned) [Example D-28, 2-((3-fluoro-1H-pyrrolo[2,3-b]pyridin-5-yl)oxy)-N-(((S)-3-((1r,4S)-4-hydroxy-4-methylcyclohexyl)-5-nitro-3,4-dihydro-2H-benzo[b] [1,4]oxazin-7-yl)sulfonyl)-4-(2-((1S,2S or 1R,2R)-2-(2-isopropylphenyl)cyclopentyl)-2,7-diazaspiro[3.5]nonan-7-yl)benzamide] | 1 |  |
|  | 2 |  | CO[C@@H](C)COc1nc2[nH]ccc2cc1Oc1cc(N2CCC3(CC2)CC(N2CCC[C@H]2c2ccccc2C(C)C)C3)ccc1C(=O)NS(=O)(=O)c1cc2c(c([N+](=O)[O-])c1)N[C@@H]([C@H]1CC[C@](C)(O)CC1)CO2 (single isomer, unassigned) [Example D-202, N-(((S)-3-((1r,4S)-4-hydroxy-4-methylcyclohexyl)-5-nitro-3,4-dihydro-2H-benzo[b][1,4]oxazin-7-yl)sulfonyl)-4-(2-((R or S)-2-(2-isopropylphenyl)pyrrolidin-1-yl)-7-azaspiro[3.5]nonan-7-yl)-2-((6-((S)-2-methoxypropoxy)-1H-pyrrolo[2,3-b]pyridin-5-yl)oxy)benzamide] | 1 |  |
